From patent US11213590B2, “SSTR-targeted conjugates and particles and formulations thereof” (priority 2016, dated 2022)
pIC50: −log10 of the molar value.

What was measured:
[1] = system: HCC-33; assay: Inhibition of proliferation, CellTiter-Glo, HCC-33; type: cell-based, human
Experimental: The purpose of this study was to determine the receptor-dependent inhibition of proliferation in vitro by the somatostatin targeting conjugate Conjugate 57 and determine the sensitivity to DM1 in the human SSTR2 expressing cancer cell lines: NCI-H69, NCI-H82, NCI-H727 and HCC-33. Cells were incubated with Conjugate 57 for 6 hours, in the presence or absence of an excess of octreotide, a somatostatin analogue. A three-fold serial dilution of Conjugate 57 was used for a total of ten concentration points. After treatment, cells were washed, incubated for an additional period of time, either 72 or 96 hours and proliferation was measured using the CellTiter-Glo® Luminescent Cell Viability Assay. The IC50 of Conjugate 57 was used to determine the inhibiting activity in proliferation assays. To determine DM1 sensitivity a similar method to the Conjugate 57 assay was employed with the additional incubation time points of 30 minutes, 1, 2, and 4 hours and the exclusion of the pre-treatment with octreotide. DM1 effect from the most to least sensitive cell line was determined to be: NCI-H69>HCC-33>NCI-H82>NCI-H727 (Table 5B). […] The addition of excess octreotide (100 μM) competes with Conjugate 57 for binding to the SSTR2 receptor. […] In the NCI-H69 experiments, pre-incubation with an excess of octreotide modestly diminished the activity of Conjugate 57 by 1.6 and 2.4 fold, depending on the assay conditions. In the HCC-33 cell line, activity of Conjugate 57 was 3.2 (±1.4) times higher when dosed alone, compared to when the cells were pre-incubated with octreotide. The small but measureable changes in Conjugate 57 activity in the presence of excess octreotide seen in the NCI-H69 and HCC-33 cell lines supports the receptor dependence of the Conjugate 57 antiproliferative effect seen in vitro. In summary, although all the cell lines tested in these experiments express the SSTR2 protein, they have different levels of sensitivity to the Conjugate 57 conjugate of which the DM1 sensitivity may be a contributing factor.

[2] = Conversion of impurities back into Conjugate 57 in acetate buffer; type: physicochemical
Experimental: Two impurities present in Conjugate 57 with RRT at 1.69 and 1.70, referred to herein as Impurity A and B respectively, were identified as Conjugate 57 adducts. […] The rate of conversion of these two compounds back into Conjugate 57 is dependent on temperature. Data are provided in Table 11A and Table 11B showing this conversion at room temperature and 40° C.

[3] = system: HCC-33 (small cell lung cancer) xenograft; assay: HCC-33 xenograft efficacy; type: in vivo
Experimental: HCC-33 (small cell lung cancer) xenograft was chosen to study efficacy of Conjugate 57. In some groups, Conjugate 57 was given at 1.0 mg/kg, 0.5 mg/kg or 0.33 mg/kg every week for 30 days, a total of four doses for each animal. In some other groups, Conjugate 57 was also given at 0.5 mg/kg or 0.25 mg/kg twice a week for 30 days, a total of 8 total doses for each animal.

[4] = target: SSTR2 (Homo sapiens, UniProt P30874); assay: SSTR2 receptor internalization in H524-MD tumor xenograft (IHC staining); type: in vivo; parameters: highly expressing SSTR2 positive (SSTR2+) tumor xenograft; endogenous in cells
Experimental: SSTR2 receptor internalization was studied using Conjugate 57 in a highly expressing SSTR2 positive (SSTR2+) tumor xenograft: H524_MD tumor xenograft. Vehicle (0.1% Solutol/5% Mannitol), Conjugate 57 at 2 mg/kg, scrambled control (BT-984) at 2 mg/kg, and Octreotide at 1.4 mg/kg (ligand alone) were given to SSTR2+ H524-MD tumor xenografts (n=3/group). Timepoints—0 hr (Vehicle), 15 mins, 1 hr, 4 hr, 24 hr and 72 hrs. SSTR2 scoring was done by immunohistochemistry (IHC) staining.

Sequence of SSTR2 (P30874 whole entry): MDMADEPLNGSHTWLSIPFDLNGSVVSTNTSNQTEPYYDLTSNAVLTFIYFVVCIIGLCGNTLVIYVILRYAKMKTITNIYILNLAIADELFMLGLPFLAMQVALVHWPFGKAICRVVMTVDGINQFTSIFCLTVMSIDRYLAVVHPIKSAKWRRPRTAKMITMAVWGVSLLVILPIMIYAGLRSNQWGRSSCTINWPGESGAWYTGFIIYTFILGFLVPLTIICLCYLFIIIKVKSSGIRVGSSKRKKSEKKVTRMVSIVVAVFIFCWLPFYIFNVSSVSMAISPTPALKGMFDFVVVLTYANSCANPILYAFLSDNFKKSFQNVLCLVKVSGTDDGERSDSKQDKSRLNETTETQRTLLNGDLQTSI

COc1cc2cc(c1Cl)N(C)C(=O)C[C@H](OC(=O)[C@H](C)N(C)C(=O)CCSSC[C@H](NC(=O)[C@@H]1CSSC[C@H](NC(=O)[C@H](N)Cc3ccccc3)C(=O)N[C@@H](Cc3ccc(O)cc3)C(=O)N[C@H](Cc3c[nH]c4ccccc34)C(=O)N[C@@H](CCCCN)C(=O)N[C@@H]([C@@H](C)O)C(=O)N1)C(N)=O)[C@]1(C)O[C@H]1[C@H](C)[C@@H]1C[C@@](O)(NC(=O)O1)[C@H](OC)/C=C/C=C(\C)C2 [Conjugate 57]
activity dosed alone compared to pre-incubation with octreotide [1]: 3.2 (±1.4) times higher | pIC50 ([1]; 5,000 cells/well, assay duration 72 h (repeat experiments), read-out: Inhibition of Proliferation IC50 Without Octreotide): 6.64 | Total (sum of Conjugate 57 and impurities A and B) ([2]; 40° C., 0 hr): 98.6% | content during conversion of impurities ([2]; 40° C., 0 hr): 94.6% | Total (sum of Conjugate 57 and impurities A and B) ([2]; 40° C., 1.4 hr): 98.7% | content during conversion of impurities ([2]; 40° C., 1.4 hr): 97.9% | Total (sum of Conjugate 57 and impurities A and B) ([2]; 40° C., 8.4 hr): 98.8% | content during conversion of impurities ([2]; 40° C., 8.4 hr): 98.5% | Total (sum of Conjugate 57 and impurities A and B) ([2]; room temperature, 0 hr): 98.6% | content during conversion of impurities ([2]; room temperature, 0 hr): 94.6% | Total (sum of Conjugate 57 and impurities A and B) ([2]; room temperature, 9.0 hr): 98.7% | content during conversion of impurities ([2]; room temperature, 9.0 hr): 97.8% | Total (sum of Conjugate 57 and impurities A and B) ([2]; room temperature, 11.6 hr): 98.8% | content during conversion of impurities ([2]; room temperature, 11.6 hr): 98.1% | Total (sum of Conjugate 57 and impurities A and B) ([2]; room temperature, 14.8 hr): 98.8% | content during conversion of impurities ([2]; room temperature, 14.8 hr): 98.3% | Total (sum of Conjugate 57 and impurities A and B) ([2]; room temperature, 16.7 hr): 98.8% | content during conversion of impurities ([2]; room temperature, 16.7 hr): 98.3% | TGI % ([3]; 0.25 mg/kg 2x/wk (8 doses), Day 4): −12.5% | TGI % ([3]; 0.25 mg/kg 2x/wk (8 doses), Day 8): 50.4% | TGI % ([3]; 0.25 mg/kg 2x/wk (8 doses), Day 11): 67.3% | TGI % ([3]; 0.25 mg/kg 2x/wk (8 doses), Day 15): 85.8% | TGI % ([3]; 0.25 mg/kg 2x/wk (8 doses), Day 18): 92.3% | TGI % ([3]; 0.25 mg/kg 2x/wk (8 doses), Day 22): 95.8% | TGI % ([3]; 0.25 mg/kg 2x/wk (8 doses), Day 25): 97.2% | TGI % ([3]; 0.25 mg/kg 2x/wk (8 doses), Day 29): 97.8% | TGI % ([3]; 0.33 mg/kg every week (4 doses), Day 4): 2.1% | TGI % ([3]; 0.33 mg/kg every week (4 doses), Day 8): 34.2% | TGI % ([3]; 0.33 mg/kg every week (4 doses), Day 11): 48% | TGI % ([3]; 0.33 mg/kg every week (4 doses), Day 15): 62.4% | TGI % ([3]; 0.33 mg/kg every week (4 doses), Day 18): 73.8% | TGI % ([3]; 0.33 mg/kg every week (4 doses), Day 22): 79% | TGI % ([3]; 0.33 mg/kg every week (4 doses), Day 25): 83.4% | TGI % ([3]; 0.33 mg/kg every week (4 doses), Day 29): 78.5% | TGI % ([3]; 0.5 mg/kg 2x/wk (8 doses), Day 4): 0.5% | TGI % ([3]; 0.5 mg/kg 2x/wk (8 doses), Day 8): 61.6% | TGI % ([3]; 0.5 mg/kg 2x/wk (8 doses), Day 11): 78.3% | TGI % ([3]; 0.5 mg/kg 2x/wk (8 doses), Day 15): 91.8% | TGI % ([3]; 0.5 mg/kg 2x/wk (8 doses), Day 18): 96.2% | TGI % ([3]; 0.5 mg/kg 2x/wk (8 doses), Day 22): 97.6% | TGI % ([3]; 0.5 mg/kg 2x/wk (8 doses), Day 25): 99.1% | TGI % ([3]; 0.5 mg/kg 2x/wk (8 doses), Day 29): 99.2% | TGI % ([3]; 0.5 mg/kg every week (4 doses), Day 4): 1.6% | TGI % ([3]; 0.5 mg/kg every week (4 doses), Day 8): 60.3% | TGI % ([3]; 0.5 mg/kg every week (4 doses), Day 11): 68.8% | TGI % ([3]; 0.5 mg/kg every week (4 doses), Day 15): 82.7% | TGI % ([3]; 0.5 mg/kg every week (4 doses), Day 18): 87.1% | TGI % ([3]; 0.5 mg/kg every week (4 doses), Day 22): 91.1% | TGI % ([3]; 0.5 mg/kg every week (4 doses), Day 25): 93.6% | TGI % ([3]; 0.5 mg/kg every week (4 doses), Day 29): 89.5% | TGI % ([3]; 1.0 mg/kg every week (4 doses), Day 4): 25.8% | TGI % ([3]; 1.0 mg/kg every week (4 doses), Day 8): 69.9% | TGI % ([3]; 1.0 mg/kg every week (4 doses), Day 11): 84.4% | TGI % ([3]; 1.0 mg/kg every week (4 doses), Day 15): 93.6% | TGI % ([3]; 1.0 mg/kg every week (4 doses), Day 18): 97.4% | TGI % ([3]; 1.0 mg/kg every week (4 doses), Day 22): 99.2% | TGI % ([3]; 1.0 mg/kg every week (4 doses), Day 25): 99.8% | TGI % ([3]; 1.0 mg/kg every week (4 doses), Day 29): 99.7% | Body weights ([3]; HCC-33 xenograft, all groups): good | tolerability of multiple doses ([3]; HCC-33 xenograft, weekly or twice weekly dosing for 30 days): well tolerated | SSTR2 receptor internalization/distribution in vivo ([4]; 2 mg/kg, H524-MD tumor xenograft): significant receptor internalization/distribution | SSTR2 receptor internalization, intensity of staining analysis ([4]; 2 mg/kg, versus BT-984 and naïve at 1 hr, 4 hr and 72 hours): significantly different results | SSTR2 internalization, distribution of staining analysis ([4]; 2 mg/kg, versus BT-984 and naïve at 4 hr, 24 hr and 72 hours): significantly different results | SSTR2 internalization compared with octreotide alone ([4]; Conjugate 57 2 mg/kg, octreotide 1.4 mg/kg): more SSTR2 internalization than octreotide alone
